These results are taken from PMC3156940 (Biochimica et biophysica acta, 2011).

In this assay the target is KirBac1.1 (His6-KirBac1.1) (Burkholderia pseudomallei, UniProt P83698). The settings on record: 200 nM [3H]cholesterol, 0.1% CHAPS, pH 7.5, 37 °C, 2 h.

Molecules are shown by their SMILES.

Sequence of KirBac1.1 (His6-KirBac1.1) (P83698 1-333): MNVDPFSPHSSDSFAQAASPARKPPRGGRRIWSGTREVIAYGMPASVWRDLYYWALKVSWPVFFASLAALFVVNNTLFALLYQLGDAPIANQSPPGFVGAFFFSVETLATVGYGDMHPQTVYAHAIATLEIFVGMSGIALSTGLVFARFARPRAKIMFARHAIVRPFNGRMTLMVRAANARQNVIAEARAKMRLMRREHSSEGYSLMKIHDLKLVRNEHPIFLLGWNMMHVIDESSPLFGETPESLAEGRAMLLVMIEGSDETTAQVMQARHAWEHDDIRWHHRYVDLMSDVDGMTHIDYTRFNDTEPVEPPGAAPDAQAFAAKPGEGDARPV

As to `C[C@H](CCCC(C)(C)O)[C@H]1CC[C@H]2[C@@H]3CC=C4C[C@@H](O)CC[C@]4(C)[C@H]3CC[C@]12C` [25-hydroxycholesterol], the “competition with [3H]cholesterol” value was 25-hydroxycholesterol was a significantly weaker competitor.

Turning to `CC(C)CCC[C@@H](C)[C@H]1CC[C@H]2[C@@H]3CC=C4C[C@H](O)CC[C@]4(C)[C@H]3CC[C@]12C` [epicholesterol], the “competition with [3H]cholesterol” value is recorded as “epicholesterol efficiently competed with cholesterol for the channel binding”.
